Laboratory results: article PMC11776921 (Journal of chemical theory and computation, 2024)

Target: GSK-3β (Homo sapiens, UniProt P49841)
Assay: GSK-3 kinase Z'LYTE assay
Assay type: biochemical
Conditions: COB-136 versus COB-187; nitrogen in the pyridine ring replaced by carbon

GSK-3β, sequence (P49841 whole entry): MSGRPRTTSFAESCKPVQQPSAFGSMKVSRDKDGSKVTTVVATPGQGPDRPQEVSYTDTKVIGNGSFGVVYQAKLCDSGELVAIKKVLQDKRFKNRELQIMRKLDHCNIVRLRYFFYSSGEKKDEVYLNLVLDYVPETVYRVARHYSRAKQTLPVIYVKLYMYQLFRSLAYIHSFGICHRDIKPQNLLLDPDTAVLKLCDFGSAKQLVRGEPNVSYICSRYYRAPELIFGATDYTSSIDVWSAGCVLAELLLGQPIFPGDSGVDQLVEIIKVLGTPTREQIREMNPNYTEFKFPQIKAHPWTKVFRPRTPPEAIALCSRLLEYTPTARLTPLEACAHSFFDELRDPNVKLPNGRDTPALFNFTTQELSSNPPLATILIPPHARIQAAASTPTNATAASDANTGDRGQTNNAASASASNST

OC1(c2ccccc2)CSC(=S)N1Cc1ccccc1 (stereo not shown) [COB-136]
inhibitory activity (in words): dramatically impairs the inhibitory activity
